Assay results published in the NIST ThermoML archive (doi:10.1021/je8004112).

How the values were obtained:
[1] = Ring tensiometer
[2] = xn = mol fraction of the nth substance listed; settings: Ring tensiometer

C1CCCCC1 [cyclohexane]
[1]
Settings | surface tension liquid-gas [mN/m]
293.15 K | 25.06
298.15 K | 24.45
303.15 K | 23.87
308.15 K | 23.21
313.15 K | 22.71
318.15 K | 22.05
323.15 K | 21.45

C1CCCCC1 [cyclohexane] + OC1CCCCC1
[2], x1 = 1
Settings | surface tension liquid-gas [mN/m]
293.15 K | 25.06
298.15 K | 24.45
303.15 K | 23.87
308.15 K | 23.21
313.15 K | 22.71
318.15 K | 22.05
323.15 K | 21.45

OC1CCCCC1 [cyclohexanol]
[1]
Settings | surface tension liquid-gas [mN/m]
293.15 K | 33.15
298.15 K | 32.74
303.15 K | 32.35
308.15 K | 31.91
313.15 K | 31.58
318.15 K | 31.13
323.15 K | 30.78

OC1CCCCC1 [cyclohexanol] + C1CCCCC1
surface tension liquid-gas [mN/m], [2]
Settings | x2 = 0 | x2 = 0.005 | x2 = 0.009 | x2 = 0.013 | x2 = 0.023 | x2 = 0.031 | x2 = 0.044 | x2 = 0.07
293.15 K | 33.15 | 31.44 | 30.93 | 30.73 | 30.42 | 30.26 | 30.12 | 29.62
298.15 K | 32.74 | 31 | 30.54 | 30.32 | 29.99 | 29.8 | 29.62 | 29.15
303.15 K | 32.35 | 30.55 | 30.17 | 29.88 | 29.57 | 29.38 | 29.16 | 28.65
308.15 K | 31.91 | 30.12 | 29.77 | 29.49 | 29.15 | 28.93 | 28.65 | 28.18
313.15 K | 31.58 | 29.73 | 29.4 | 29.06 | 28.76 | 28.48 | 28.26 | 27.75
318.15 K | 31.13 | 29.26 | 29 | 28.67 | 28.34 | 28.07 | 27.78 | 27.27
323.15 K | 30.78 | 28.88 | 28.63 | 28.3 | 27.91 | 27.66 | 27.35 | 26.82

OC1CCCCC1 [cyclohexanol] + CCCCCC
surface tension liquid-gas [mN/m], [2]
Settings | x2 = 0 | x2 = 0.007 | x2 = 0.009 | x2 = 0.012 | x2 = 0.021 | x2 = 0.03 | x2 = 0.042 | x2 = 0.075
293.15 K | 33.15 | 31.87 | 31.64 | 31.5 | 31.11 | 30.5 | 30 | 28.85
298.15 K | 32.74 | 31.5 | 31.31 | 31.08 | 30.71 | 30.07 | 29.59 | 28.42
303.15 K | 32.35 | 31.13 | 30.96 | 30.7 | 30.33 | 29.67 | 29.15 | 27.96
308.15 K | 31.91 | 30.77 | 30.64 | 30.26 | 29.96 | 29.26 | 28.74 | 27.5
313.15 K | 31.58 | 30.42 | 30.31 | 29.88 | 29.55 | 28.85 | 28.33 | 27.06

OC1CCCCC1 [cyclohexanol] + CCCCCCC
surface tension liquid-gas [mN/m], [2]
Settings | x2 = 0 | x2 = 0.011 | x2 = 0.014 | x2 = 0.02 | x2 = 0.025 | x2 = 0.033 | x2 = 0.037 | x2 = 0.061
293.15 K | 33.15 | 32.84 | 32.69 | 32.56 | 31.8 | 31.53 | 31.38 | 29.87
298.15 K | 32.74 | 32.47 | 32.29 | 32.2 | 31.48 | 31.17 | 31.01 | 29.54
303.15 K | 32.35 | 32.11 | 31.92 | 31.8 | 31.08 | 30.82 | 30.56 | 29.2
308.15 K | 31.91 | 31.78 | 31.55 | 31.39 | 30.74 | 30.44 | 30.14 | 28.83
313.15 K | 31.58 | 31.43 | 31.23 | 31.01 | 30.41 | 30.1 | 29.77 | 28.54
318.15 K | 31.13 | 31.07 | 30.85 | 30.57 | 30.07 | 29.76 | 29.39 | 28.23
323.15 K | 30.78 | 30.7 | 30.45 | 30.16 | 29.7 | 29.43 | 28.99 | 27.87

OC1CCCCC1 [cyclohexanol] + CCCCCCCCC
surface tension liquid-gas [mN/m], [2]
Settings | x2 = 0 | x2 = 0.003 | x2 = 0.006 | x2 = 0.008 | x2 = 0.012 | x2 = 0.022 | x2 = 0.041 | x2 = 0.06
293.15 K | 33.15 | 32.91 | 32.7 | 32.65 | 32.24 | 31.79 | 30.67 | 29.88
298.15 K | 32.74 | 32.51 | 32.3 | 32.22 | 31.85 | 31.44 | 30.3 | 29.48
303.15 K | 32.35 | 32.11 | 31.84 | 31.78 | 31.49 | 31.09 | 29.91 | 29.11
308.15 K | 31.91 | 31.72 | 31.44 | 31.35 | 31.09 | 30.72 | 29.52 | 28.72
313.15 K | 31.58 | 31.36 | 31.08 | 30.94 | 30.75 | 30.38 | 29.17 | 28.37
318.15 K | 31.13 | 30.99 | 30.69 | 30.52 | 30.41 | 29.99 | 28.8 | 27.98
323.15 K | 30.78 | 30.54 | 30.3 | 30.07 | 30.02 | 29.62 | 28.41 | 27.56

OC1CCCCC1 [cyclohexanol] + CCCCCCCCCCCC
surface tension liquid-gas [mN/m], [2]
Settings | x2 = 0 | x2 = 0.006 | x2 = 0.009 | x2 = 0.011 | x2 = 0.022 | x2 = 0.031 | x2 = 0.046 | x2 = 0.075
293.15 K | 33.15 | 31.7 | 31.11 | 30.68 | 30.22 | 29.81 | 29.14 | 27.16
298.15 K | 32.74 | 31.23 | 30.71 | 30.32 | 29.85 | 29.37 | 28.74 | 26.8
303.15 K | 32.35 | 30.78 | 30.28 | 29.99 | 29.46 | 28.87 | 28.35 | 26.47
308.15 K | 31.91 | 30.35 | 29.88 | 29.61 | 29.08 | 28.44 | 27.98 | 26.1
313.15 K | 31.58 | 29.92 | 29.49 | 29.25 | 28.72 | 28.01 | 27.58 | 25.76
318.15 K | 31.13 | 29.49 | 29.07 | 28.88 | 28.35 | 27.57 | 27.21 | 25.44
323.15 K | 30.78 | 29 | 28.69 | 28.5 | 27.99 | 27.13 | 26.83 | 25.09

CCCCCCCCCCCC [dodecane]
[1]
Settings | surface tension liquid-gas [mN/m]
293.15 K | 24.28
298.15 K | 23.84
303.15 K | 23.38
308.15 K | 22.98
313.15 K | 22.56
318.15 K | 22.14
323.15 K | 21.71

CCCCCCCCCCCC [dodecane] + OC1CCCCC1
[2], x1 = 1
Settings | surface tension liquid-gas [mN/m]
293.15 K | 24.28
298.15 K | 23.84
303.15 K | 23.38
308.15 K | 22.98
313.15 K | 22.56
318.15 K | 22.14
323.15 K | 21.71

CCCCCCC [heptane]
[1]
Settings | surface tension liquid-gas [mN/m]
293.15 K | 20.05
298.15 K | 19.54
303.15 K | 19.1
308.15 K | 18.58
313.15 K | 18.08
318.15 K | 17.6
323.15 K | 17.06

CCCCCCC [heptane] + OC1CCCCC1
[2], x1 = 1
Settings | surface tension liquid-gas [mN/m]
293.15 K | 20.05
298.15 K | 19.54
303.15 K | 19.1
308.15 K | 18.58
313.15 K | 18.08
318.15 K | 17.6
323.15 K | 17.06

CCCCCC [hexane]
[1]
Settings | surface tension liquid-gas [mN/m]
293.15 K | 18.56
298.15 K | 18.03
303.15 K | 17.44
308.15 K | 16.92
313.15 K | 16.38

CCCCCC [hexane] + OC1CCCCC1
[2], x1 = 1
Settings | surface tension liquid-gas [mN/m]
293.15 K | 18.56
298.15 K | 18.03
303.15 K | 17.44
308.15 K | 16.92
313.15 K | 16.38

CCCCCCCCC [nonane]
[1]
Settings | surface tension liquid-gas [mN/m]
293.15 K | 23.04
298.15 K | 22.49
303.15 K | 22.04
308.15 K | 21.49
313.15 K | 20.94
318.15 K | 20.47
323.15 K | 19.98

CCCCCCCCC [nonane] + OC1CCCCC1
[2], x1 = 1
Settings | surface tension liquid-gas [mN/m]
293.15 K | 23.04
298.15 K | 22.49
303.15 K | 22.04
308.15 K | 21.49
313.15 K | 20.94
318.15 K | 20.47
323.15 K | 19.98
